The values that follow come from patent publication US9193736B2, “PDE 10a inhibitors for the treatment of type II diabetes” (Janssen Pharmaceutica, NV, priority 2013, dated 2015).

Each structure is given as a SMILES string. Counter-ions that a name gives are not always drawn. Where only a bound is given, the exact number is not on record here.

For experiment [1], the target named is Human recombinant PDE10A2 (Homo sapiens (Human), UniProt Q9Y233). In words: In vitro hPDE10a: human recombinant PDE10A2 scintillation proximity assay, IC50. In kind it is biochemical. The note with it: human recombinant PDE10A2, SPA, 60 nM cAMP; read-out: hPDE10a2 IC50. As for the experimental part: Cells were harvested and the phosphodiesterase protein was purified by metal chelate chromatography on Ni-sepharose 6FF. The affinity of the compounds of Formula (I) for phophodiesterases (PDE) was measured by a scintillation proximity assay (SPA). PDE Yttrium Silicate SPA beads allow PDE activity to be measured by direct binding of the primary phosphate groups of non-cyclic AMP or GMP to the beads via a complex iron chelation mechanism. The amount of bound tritiated product ([^3H]-AMP) is measured by liquid scintillation counting. The compounds were dissolved and diluted in 100% DMSO in polystyrene plates to a concentration of 100-fold the final concentration in the assay. […] After incubation, the reaction was stopped with 20 μL of stop solution, consisting of PDE SPA beads (17.8 mg beads/mL in 18 mM zinc sulphate). […] To measure the low control, no enzyme was added to the reaction mixture. Data were calculated as the percentage of inhibition of total activity measured in the absence of test compound (% control). […] For compounds tested more than once, the data points were aggregated.

The target in experiment [2] is Rat recombinant PDE10a (rPDE10a) (Rattus norvegicus (Rat), UniProt Q9QYJ6). In words: In vitro assay PDE10a: rat recombinant PDE10a SPA with 3H-cAMP substrate, IC50. The note with it: 60 nM cAMP, read-out: rPDE10a2 IC50. In kind it is biochemical. Here is the method: In Vitro Assay PDE10a Rat recombinant PDE10a (rPDE10a) was expressed in Sf9 cells using a recombinant rPDE10a baculovirus construct. Cells were harvested after 48 h of infection and the rPDE10a protein was purified by metal chelate chromatography on Ni-sepharose 6FF. Tested compounds were dissolved and diluted in 100% DMSO to a concentration 100 fold of the final concentration in the assay. […] The reaction was incubated for 60 min at rt. After incubation, the reaction was stopped with 20 μL of 17.8 mg/mL PDE SPA beads. […] For blank values the enzyme was omitted from the reaction and replaced by incubation buffer.
Rat recombinant PDE10a (rPDE10a), sequence (Q9QYJ6 whole entry): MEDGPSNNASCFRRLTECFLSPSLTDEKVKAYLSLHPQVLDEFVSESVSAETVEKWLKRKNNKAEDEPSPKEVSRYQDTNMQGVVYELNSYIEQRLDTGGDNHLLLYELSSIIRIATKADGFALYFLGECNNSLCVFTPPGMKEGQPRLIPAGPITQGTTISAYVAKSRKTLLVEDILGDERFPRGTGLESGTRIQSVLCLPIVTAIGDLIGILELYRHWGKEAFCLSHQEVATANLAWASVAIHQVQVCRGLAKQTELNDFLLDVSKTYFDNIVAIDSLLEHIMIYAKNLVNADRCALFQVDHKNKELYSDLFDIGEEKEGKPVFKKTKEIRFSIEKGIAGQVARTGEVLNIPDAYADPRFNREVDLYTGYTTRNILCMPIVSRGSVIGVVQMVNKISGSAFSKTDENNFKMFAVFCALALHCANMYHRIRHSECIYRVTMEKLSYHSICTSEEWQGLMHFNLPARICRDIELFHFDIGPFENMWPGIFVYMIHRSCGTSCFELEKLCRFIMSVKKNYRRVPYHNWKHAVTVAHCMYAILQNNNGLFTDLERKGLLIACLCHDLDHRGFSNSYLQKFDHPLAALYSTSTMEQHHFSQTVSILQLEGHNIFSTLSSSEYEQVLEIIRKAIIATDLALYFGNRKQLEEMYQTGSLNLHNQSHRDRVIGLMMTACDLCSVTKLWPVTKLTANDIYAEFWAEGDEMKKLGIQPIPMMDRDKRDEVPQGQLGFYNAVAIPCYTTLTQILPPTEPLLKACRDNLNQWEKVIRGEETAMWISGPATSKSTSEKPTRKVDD

Human recombinant PDE10A2, sequence (Q9Y233 267-1055): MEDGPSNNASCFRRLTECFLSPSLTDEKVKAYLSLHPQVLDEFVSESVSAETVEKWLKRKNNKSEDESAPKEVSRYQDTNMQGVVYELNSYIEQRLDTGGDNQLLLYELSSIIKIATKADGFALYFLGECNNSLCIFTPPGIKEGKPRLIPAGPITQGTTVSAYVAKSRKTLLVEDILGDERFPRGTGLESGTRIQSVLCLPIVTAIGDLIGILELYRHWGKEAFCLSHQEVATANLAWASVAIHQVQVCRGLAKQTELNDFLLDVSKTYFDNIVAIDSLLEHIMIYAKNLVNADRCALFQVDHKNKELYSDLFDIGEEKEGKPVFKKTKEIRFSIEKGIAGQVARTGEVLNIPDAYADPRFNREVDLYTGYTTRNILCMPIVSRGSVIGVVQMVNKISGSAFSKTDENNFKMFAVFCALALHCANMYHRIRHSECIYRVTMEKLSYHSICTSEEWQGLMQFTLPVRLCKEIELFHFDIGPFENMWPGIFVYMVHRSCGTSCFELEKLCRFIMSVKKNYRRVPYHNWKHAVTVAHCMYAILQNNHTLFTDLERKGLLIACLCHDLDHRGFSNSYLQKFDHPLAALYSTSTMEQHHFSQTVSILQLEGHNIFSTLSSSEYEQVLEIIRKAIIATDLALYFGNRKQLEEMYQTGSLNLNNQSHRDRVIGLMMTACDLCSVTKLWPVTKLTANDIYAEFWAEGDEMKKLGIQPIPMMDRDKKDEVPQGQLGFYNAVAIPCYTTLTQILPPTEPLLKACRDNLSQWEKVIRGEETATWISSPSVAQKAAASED

Take `N#Cc1ccc(C#Cc2nc3c(N4CCOCC4)ccnn3c2-c2ccc(C(=O)O)cc2)nc1` [Cpd 96, 4-(2-((5-Cyanopyridin-2-yl)ethynyl)-8-morpholinoimidazo[1,2-b]pyridazin-3-yl)benzoic acid]: the IC50 (commonly the concentration that gives 50% inhibition) is 22 nM in experiment [1] and 31 nM in experiment [2].
In the same order, the values of `O=c1[nH]c(-c2ccc(-c3c(CCc4ccc5ccccc5n4)nc4c(N5CCOCC5)ccnn34)cn2)no1` [Cpd 37, 3-(5-(8-Morpholino-2-(2-(quinolin-2-yl)ethyl)imidazo[1,2-b]pyridazin-3-yl)pyridin-2-yl)-1,2,4-oxadiazol-5(4H)-one] are 1 nM and less than 1 nM.
As to `CS(=O)(=O)NC(=O)c1cccc2nc(/C=C/c3nc4c(N5CCOCC5)ccnn4c3-c3ccccn3)ccc12` [Cpd 145, (E)-N-(Methylsulfonyl)-2-(2-(8-morpholino-3-(pyridin-2-yl)imidazo[1,2-b]pyridazin-2-yl)vinyl)quinoline-5-carboxamide], the results for the IC50 in experiment [1] and in experiment [2] were 4 nM and 2 nM, respectively.
On the same counts, the results for `C(=C\c1nc2c(N3CCOCC3)ccnn2c1N1CCCCC1)/c1ccc2ccccc2n1` [compound 154, (E)-4-(3-(Piperidin-1-yl)-2-(2-(quinolin-2-yl)vinyl)imidazo[1,2-b]pyridazin-8-yl)morpholine] are 72 nM and 28 nM.
In the same order, the values of `CS(=O)(=O)Nc1ccc(-c2c(/C=C/c3ccc4ccccc4n3)nc3c(N4CCOCC4)ccnn23)cc1` [compound 47, (E)-N-(4-(8-Morpholino-2-(2-(quinolin-2-yl)vinyl)imidazo[1,2-b]pyridazin-3-yl)phenyl)methanesulfonamide] are 14 nM and 11 nM.
On the same counts, the results for `COc1cccc(C#Cc2nc3c(N4CCOCC4)ccnn3c2-c2ccc(C(=O)O)cc2)n1` [Cpd 109, 4-(2-((6-Methoxypyridin-2-yl)ethynyl)-8-morpholinoimidazo[1,2-b]pyridazin-3-yl)benzoic acid] are less than 1 nM and less than 1 nM.
Take `c1cncc(-c2c(COc3ccc4ccccc4n3)nc3c(N4CCOCC4)ccnn23)c1` [Cpd 2, 4-(3-(pyridin-3-yl)-2-((quinolin-2-yloxy)methyl)imidazo[1,2-b]pyridazin-8-yl)morpholine]: the values for the IC50 in experiment [1] and in experiment [2] were 245 nM and 141 nM, respectively.
On the same counts, the results for `c1ccc2nc(SCc3nc4c(N5CCOCC5)ccnn4c3-c3ccc(-c4nnn[nH]4)nc3)ccc2c1` [Cpd 32, 4-(3-(6-(1H-Tetrazol-5-yl)pyridin-3-yl)-2-((quinolin-2-ylthio)methyl)imidazo[1,2-b]pyridazin-8-yl)morpholine trifluoroacetic acid salt] are 2 nM and 1 nM.
With `CS(=O)(=O)NC(=O)Nc1ccc(-c2c(CCc3ccc4ccccc4n3)nc3c(N4CCOCC4)ccnn23)cc1` [Cpd 51, N-({4-[8-Morpholin-4-yl-2-(2-quinolin-2-ylethyl)imidazo[1,2-b]pyridazin-3-yl]phenyl}carbamoyl)methanesulfonamide], the IC50 in experiment [1] came out at 6 nM; in experiment [2], 4 nM.
On the same counts, the results for `CS(=O)(=O)NC(=O)CCc1ccc(-c2c(/C=C/c3ccc4ccccc4n3)nc3c(N4CCOCC4)ccnn23)cn1` [Cpd 129, (E)-N-(Methylsulfonyl)-3-(5-(8-morpholino-2-(2-(quinolin-2-yl)vinyl)imidazo[1,2-b]pyridazin-3-yl)pyridin-2-yl)propanamide trifluoroacetic acid salt] are 2 nM and 6 nM.
On the same counts, the results for `O=S(=O)(Cc1nc2c(N3CCOCC3)ccnn2c1-c1ccc(N2CCNCC2)nc1)c1ccc2ccccc2n1` [Cpd 9, 4-(3-(6-(piperazin-1-yl)pyridin-3-yl)-2-((quinolin-2-ylsulfonyl)methyl)imidazo[1,2-b]pyridazin-8-yl)morpholine trifluoroacetic acid salt] are 427 nM and 132 nM.
On the same counts, the results for `O=C(O)c1ccc(-c2c(CCc3ccc4ccccc4n3)nc3c(N4CCOCC4)ccnn23)cc1O` [compound 64, 2-Hydroxy-4-(8-morpholino-2-(2-(quinolin-2-yl)ethyl)imidazo[1,2-b]pyridazin-3-yl)benzoic acid] are 1 nM and 2 nM.
Take `CC(=O)NS(=O)(=O)c1ccc(-c2c(/C=C/c3ccc4ccccc4n3)nc3c(N4CCOCC4)ccnn23)cc1` [compound 36, (E)-N-((4-(8-Morpholino-2-(2-(quinolin-2-yl)vinyl)imidazo[1,2-b]pyridazin-3-yl)phenyl)sulfonyl)acetamide]: the IC50 in experiment [1] and in experiment [2] was 2 nM each time.
With `Cc1ccc(-c2c(COc3ccc4ccccc4n3)nc3c(N4CCOCC4)ccnn23)cn1` [Cpd 1, 4-(3-(6-methylpyridin-3-yl)-2-((quinolin-2-yloxy)methyl)imidazo[1,2-b]pyridazin-8-yl)morpholine methane sulfonic acid], the results for the half-inhibitory concentration (IC50) in experiment [1] and in experiment [2] were 115 nM and 46 nM, respectively.
Turning to `O=C(O)c1cccc2nc(/C=C/c3cn4nccc(N5CCOCC5)c4n3)ccc12` [Cpd 115, 2-[(E)-2-(8-Morpholin-4-ylimidazo[1,2-b]pyridazin-2-yl)ethenyl]quinoline-5-carboxylic acid], the IC50 in experiment [1] and in experiment [2] was 1 nM each time.
For the molecule `O=C(O)C1CCN(c2c(/C=C/c3ccc4ccccc4n3)nc3c(N4CCOCC4)ccnn23)CC1` [Cpd 131, (E)-1-(8-Morpholino-2-(2-(quinolin-2-yl)vinyl)imidazo[1,2-b]pyridazin-3-yl)piperidine-4-carboxylic acid trifluoroacetic acid salt], the IC50 in experiment [1] came to 7 nM; in experiment [2], 5 nM.
In the same order, the values of `CS(=O)(=O)NC(=O)c1cccc2nc(/C=C/c3nc4c(N5CCOCC5)cc(Cl)nn4c3-c3cccnc3)ccc12` [Cpd 141, (E)-2-(2-(6-Chloro-8-morpholino-3-(pyridin-3-yl)imidazo[1,2-b]pyridazin-2-yl)vinyl)-N-(methylsulfonyl)quinoline-5-carboxamide] are 58 nM and 23 nM.
On the same counts, the results for `CS(=O)(=O)NC(=O)c1cccc2nc(/C=C/c3nc4c(N5CCOCC5)ccnn4c3-c3ccccc3)ccc12` [Cpd 122, (E)-N-(Methylsulfonyl)-2-(2-(8-morpholino-3-phenylimidazo[1,2-b]pyridazin-2-yl)vinyl)quinoline-5-carboxamide] are 4 nM and 7 nM.
On the same counts, the results for `O=c1[nH]nnn1-c1ccc(-c2c(CCc3ccc4ccccc4n3)nc3c(N4CCOCC4)ccnn23)cc1` [Cpd 62, 1-(4-(8-Morpholino-2-(2-(quinolin-2-yl)ethyl)imidazo[1,2-b]pyridazin-3-yl)phenyl)-1H-tetrazol-5(4H)-one] are 4 nM and 9 nM.
Consider `O=C(O)c1ccc(-c2c(C#Cc3ccc4ccccc4n3)nc3c(N4CCOCC4)ccnn23)cc1` [Cpd 77, 4-(8-Morpholino-2-(quinolin-2-ylethynyl)imidazo[1,2-b]pyridazin-3-yl)benzoic acid], for which the IC50 in experiment [1] and in experiment [2] was less than 1 nM in each case.
In the case of `c1ccc2nc(NCc3nc4c(N5CCOCC5)ccnn4c3-c3ccc(N4CCNCC4)nc3)ccc2c1` [Cpd 4, N-((8-Morpholino-3-(6-(piperazin-1-yl)pyridin-3-yl)imidazo[1,2-b]pyridazin-2-yl)methyl)quinolin-2-amine trifluoroacetic acid salt], the IC50 in experiment [1] was found to be 155 nM; in experiment [2], 200 nM.
On the same counts, the results for `O=C(O)c1ccc(-c2c(C#Cc3nc4ccccc4s3)nc3c(N4CCOCC4)ccnn23)cc1` [Cpd 87, 4-(2-(Benzo[d]thiazol-2-ylethynyl)-8-morpholinoimidazo[1,2-b]pyridazin-3-yl)benzoic acid] are 1 nM and 1 nM.
As to `O=C(O)c1ccc(-c2c(C#Cc3nc4ccccc4[nH]3)nc3c(N4CCOCC4)ccnn23)cc1` [Cpd 108, 4-(2-((1H-Benzo[d]imidazol-2-yl)ethynyl)-8-morpholinoimidazo[1,2-b]pyridazin-3-yl)benzoic acid], the half-inhibitory concentration (IC50) in experiment [1] and in experiment [2] was less than 1 nM in each case.
In the case of `O=C(Nc1ccc2ccccc2n1)c1nc2c(N3CCOCC3)ccnn2c1-c1ccc(N2CCNCC2)nc1` [Cpd 3, 8-Morpholino-3-(6-(piperazin-1-yl)pyridin-3-yl)-N-(quinolin-2-yl)imidazo[1,2-b]pyridazine-2-carboxamide trifluoroacetic acid salt], the IC50 in experiment [1] amounted to 759 nM; in experiment [2], 676 nM.
On the same counts, the results for `Cn1nc(-c2ccc(-c3c(CCc4ccc5ccccc5n4)nc4c(N5CCOCC5)ccnn34)cc2)[nH]c1=O` [Cpd 78, 1-Methyl-3-[4-[8-(morpholin-4-yl)-2-[2-(quinolin-2-yl)ethyl]imidazo[1,2-b]pyridazin-3-yl]phenyl]-4,5-dihydro-1H-1,2,4-triazol-5-one] are 15 nM and 20 nM.
